The record followed here is patent publication US20140294994A1, “PHARMACEUTICAL COMPOSITION FOR ELIMINATION OF CANCER STEM CELLS” (priority 2011, published 2014).

A value given as a limit tells only on which side of the number the result lay.

For orientation: IC50 means the concentration that inhibits the measured activity by half.

The subject of experiment [1] is A549 cells. Kind of experiment: MTT assay (cell viability). The format is cell-based, human. The settings on record: A549 cells, read-out: MTT assay (IC50). An excerpt: In addition to the commonly used cell lines (A549 and H1975), we also established several cell lines including CL83, CL141, CL152, CL25, and CL97 cell lines which were isolated from the pleural effusion of NSCLC patients at the National Taiwan University Hospital. The investigation was approved by the Institutional Review Board of the National Taiwan University Hospital. Informed consent was obtained before pleural effusion was collected.
In general terms: Tetrazolium assays rely on reduction of a dye to a coloured formazan, in cell work by metabolically active cells.

In the next experiment the test system is CL141 cells. As to the kind of experiment: Side population analysis (Hoechst 33342, flow cytometry). The format is cell-based, human. As for the experimental part:
Single-cell suspensions of cells were detached from dishes with Trypsin-EDTA (Invitrogen) and suspended at 1×10^6 cells/mL in Hank's balanced salt solution (HBSS) supplemented with 3% fetal calf serum and 10 mM Hepes. […] After 90 minutes incubation, the cells were centrifuged immediately for 5 minutes at 300 g and 4° C. and resuspended in ice-cold HBSS. The cells were kept on ice to inhibit efflux of the Hoechst dye, and 1 μg/mL propidium iodide (BD) was added to discriminate dead cells. Finally, these cells were filtered through a 40 μm cell strainer (BD) to obtain single-suspension cells. Cell dual-wavelength analysis and purification were performed on a dual-laser FACS Vantage SE (BD). […] A 610 nm dichroic mirror short-pass (DMSP) was used to separate the emission wavelengths. PI-positive (dead) cells were excluded from the analysis.
On the technique in general: In flow cytometry, cells or beads pass a laser one at a time.

In experiment [2] the test system is A549 cells. Kind of experiment: Clonogenic assay. The class given is cell-based, human. As to the method: The NSCLC cancer cell lines, A549, H1975, CL25, CL83, CL97, CL141, and CL152 were maintained in RPMI medium. Tested cells were seeded respectively in 6 well plates with 10^4 cells per well for 14 days. Each well contained 10 ml RPMI medium as cultured condition for NSCLC cells. […] Trifluoperazine and other tested drugs were added 24 hours after seeding of the cells. The medium and trifluoperazine were changed once on day 4. After the treatments, cells were washed with PBS, and the colonies were fixed with fix solution (acetic acid:methanol=1:3) and stained with 0.5% crystal violet in methanol. After removing the crystal violet carefully and rinse with tap water, the colonies were counted manually.

The subject of the next experiment is CL83 spheroids. Kind of experiment: Cisplatin response of spheroids versus parental cells (IC50, viability, caspase-3 activity). The format is cell-based, human. An excerpt:
(§1) We selected three gefitinib-resistant NSCLC cell lines, CL141 (wild type EGFR), CL83 (wild type EGFR) and CL97 (EGFR-G719A+T790M acquired resistant mutation) to determine if trifluoperazine could sensitize these cells towards chemotherapeutic agents.

The test system of a further experiment is CL97 spheroids. The description is as above. The class given is cell-based, human.
Source text: as §1

A further experiment deals with CL141 spheroids. The experiment is described as above. The format is cell-based, human.
Source text: as §1

The test system of a further experiment is CL97-L2G cells. Kind of experiment: Bulk lung tumor model, bioluminescent imaging. The class given is in vivo, NOD/SCID mice. The following applies: 4 weeks, trifluoperazine 5 mg/kg/day i.p., gefitinib 150 mg/kg/day oral gavage, combination trifluoperazine 5 mg/kg/day i.p. + gefitinib 100 mg/kg/day oral. As for the experimental part: For bulk lung tumor model, CL97-[…] cells were intravenously administered into the animals via tail vein at a concentration of 1×10^6 cells/100 μl PBS. One week post tumor injection, different treatment regimens were started. […] CL97-[…]-bearing mice (both bulk lung tumor and CSC models) were imaged weekly using the IVIS 200 system (Caliper Life Sciences). Data are expressed as fold change in total photon flux/initial total photon flux and were analyzed using Living Image 1.0 software (Caliper Life Sciences). Mice were humanely sacrificed at the end of experiments and lung tumor biopsies were obtained for further analysis.

The test system of another experiment is CL97-L2G tumor samples. As to the kind of experiment: Protein profiles of tumor biopsies (Western blot). The following applies: tumor biopsies of treated mice. The class given is in vivo, NOD/SCID mice. As to the method:
Total cell lysates were harvested from tumor biopsies of mice which received different treatments and their protein profiles were examined.
Cells were lysed in lysis buffer (50 mM Tris-HCl, pH 7.4, 5 mM MgCl2, 1% Nonidet P-40, 150 mM NaCl, 1 mM phenylmethylsulfonyl fluoride). Total protein was isolated and subjected to SDS polyacrylamide gel electrophoresis and electrotransfered onto PVDF membranes (Millipore). Primary antibodies Bax, Bak, Bcl-2, XIAP, Mcl-1, Cleaved Caspase 9, Caspase 3, […], c-Myc, CD44, cyclin D1 were obtained from Cell Signaling, Met was purchased from Santa Cruz and CD133 was from Miltenyi Biotec, and secondary antibodies for anti-mouse and anti-rabbit horseradish preoxidase (HRP)-conjugation were from Chemicon International. The protein detection was performed with enhanced chemiluminescence (ECL™) method captured by a Luminescence Imaging System (LAS-4000™, Fuji Photo Film Co., Ltd).
. […] CL97-L2G-bearing mice (both bulk lung tumor and CSC models) were imaged weekly using the IVIS 200 system (Caliper Life Sciences). Data are expressed as fold change in total photon flux/initial total photon flux and were analyzed using Living Image 1.0 software (Caliper Life Sciences). Mice were humanely sacrificed at the end of experiments and lung tumor biopsies were obtained for further analysis.

In the case of `CC(=O)c1ccc2c(c1)N(CCCN(C)C)c1ccccc1S2` [Acepromazine], the results for the IC50 in the experiment with A549 cells [1] (Homo sapiens) and in the experiment on A549 cells [2] (Homo sapiens) were above 10 µM and 1 to 2.5 µM, respectively. The Reduced side population result with CL141 cells is on record as “No”.
Take `CN(C)CCCN1c2ccccc2Sc2ccc(Cl)cc21` [Chlorpromazine]: the figures for the IC50 in the experiment with A549 cells [1] and in the experiment with A549 cells [2] were 5 to 10 µM and 2.5 to 5 µM, respectively. In the experiment with CL141 cells, the Reduced side population entry is reported as “Yes”.
For `OCCN1CCN(CCCN2c3ccccc3Sc3ccc(C(F)(F)F)cc32)CC1` [Fluphenazine], the Reduced side population entry in the experiment on CL141 cells is “No”.
On the same count and under the same terms, in the case of `CN1CCN(CCCN2c3ccccc3Sc3ccc(Cl)cc32)CC1` [Prochlorperazine] it was “No”.
With `CN(C)CCCN1c2ccccc2Sc2ccccc21` [Promazine], the IC50 in the experiment on A549 cells [1] (Homo sapiens) was above 10 µM. Moreover, the Reduced side population result with CL141 cells is “Yes”.
The like results for `CN(C)CCCN1c2ccccc2Sc2ccc(C(F)(F)F)cc21` [Triflupromazine] were, in that order, above 10 µM and “Yes”.
`N.N.[Cl][Pt][Cl]` [cisplatin]: the “IC50 of spheroids compared with parental cells” value in the experiment with CL83 spheroids, in the experiment with CL97 spheroids and with CL141 spheroids was “significantly higher IC50” in each case. For the same compound, the “caspase-3 activity of spheroids compared with parental cells” value was “lower caspase-3 activity” in the experiment with CL83 spheroids (10 μM, 24 hours); “lower caspase-3 activity” with CL97 spheroids (10 μM, 24 hours); “lower caspase-3 activity” in the experiment on CL141 spheroids (10 μM, 24 hours). The “viability of spheroids compared with parental cells” value in the experiment with CL83 spheroids (10 μM, 24 hours) is recorded as “higher viability”; with CL97 spheroids (10 μM, 24 hours) it was “higher viability”; in the experiment on CL141 spheroids (10 μM, 24 hours) it was “higher viability”.
Turning to `COc1cc2ncnc(Nc3ccc(F)c(Cl)c3)c2cc1OCCCN1CCOCC1` [gefitinib], the figures for the “tumor burden (fold change in bioluminescence intensity)” value in the experiment on CL97-L2G cells and in the experiment on CL97-L2G cells (listed as genfitnib) were “not significantly different” and “no effects in suppressing tumor recurrence”, respectively. Moreover, in the experiment on CL97-L2G tumor samples, the “c-Myc and β-catenin expression in tumor samples” value is given as “did not significantly influence”.
Regarding Pherphenazine [Perphenazine], the IC50 is above 10 µM with A549 cells [1] and 5 to 10 µM with A549 cells [2]. In the experiment with CL141 cells, the Reduced side population result is listed as “Yes”.
For Promethazine, the IC50 with A549 cells [1] is above 10 µM; in the experiment with A549 cells [2], 5 to 10 µM. The Reduced side population entry in the experiment on CL141 cells is on record as “No”.
On to Thioridazine, for which the Reduced side population entry in the experiment on CL141 cells is reported as “Yes”.
